Measured values published in patent publication US20210300943A1, “OGA INHIBITOR COMPOUNDS” (Janssen Pharmaceutica NV, priority 2018, published 2021).

Target: T1, OGA (Homo sapiens, UniProt O60502)
T1 construct: endogenous in cells; host or cells: HEK293 cells inducible for P301L mutant human Tau (2N4R)
T1 sequence (O60502 1-916): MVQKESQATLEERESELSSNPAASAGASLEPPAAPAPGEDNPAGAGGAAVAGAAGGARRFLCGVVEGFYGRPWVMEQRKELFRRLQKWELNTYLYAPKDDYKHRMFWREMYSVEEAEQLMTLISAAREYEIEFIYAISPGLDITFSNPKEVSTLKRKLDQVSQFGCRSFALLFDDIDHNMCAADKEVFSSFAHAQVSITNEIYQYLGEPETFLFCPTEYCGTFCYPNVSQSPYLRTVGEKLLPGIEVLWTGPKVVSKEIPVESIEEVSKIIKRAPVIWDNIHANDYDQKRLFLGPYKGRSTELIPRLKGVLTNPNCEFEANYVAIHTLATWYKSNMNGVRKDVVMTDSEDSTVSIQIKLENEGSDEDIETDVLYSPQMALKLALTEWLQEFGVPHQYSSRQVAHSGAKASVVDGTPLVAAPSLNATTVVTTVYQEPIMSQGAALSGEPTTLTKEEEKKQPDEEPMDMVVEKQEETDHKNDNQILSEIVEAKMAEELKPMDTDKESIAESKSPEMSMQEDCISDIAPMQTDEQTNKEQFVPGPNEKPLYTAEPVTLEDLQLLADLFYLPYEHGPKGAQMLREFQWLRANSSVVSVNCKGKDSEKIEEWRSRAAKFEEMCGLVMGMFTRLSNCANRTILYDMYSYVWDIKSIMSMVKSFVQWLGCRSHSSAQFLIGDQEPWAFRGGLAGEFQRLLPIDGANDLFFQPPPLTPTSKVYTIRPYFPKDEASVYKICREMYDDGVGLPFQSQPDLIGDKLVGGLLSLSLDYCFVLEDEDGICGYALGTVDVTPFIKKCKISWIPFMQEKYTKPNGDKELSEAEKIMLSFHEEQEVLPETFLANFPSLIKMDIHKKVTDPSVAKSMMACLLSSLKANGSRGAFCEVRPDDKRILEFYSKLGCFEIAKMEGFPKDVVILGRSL
Assay: OGA cellular assay (ICC detection of O-GlcNAcylated proteins in HEK293 cells inducible for P301L mutant human Tau)
Format: cell-based
Settings: for EC50: 6 hours incubation, read-out: Cellular hOGA, pEC50 (converted)
Procedure, shortened: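 HEK293 cells inducible for P301L Tau, in low-glucose assay medium, treated 6 h with compound at 0.2% DMSO. O-GlcNAcylated proteins detected by CTD110.6 immunostaining, imaged at 488 nm with Hoechst nuclear counts for toxicity. IC50 from non-linear regression, 200 uM Thiamet G as maximum.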

[1] = HEK293 cells inducible for P301L mutant human Tau

| Emax (HEK293, HEK293 cells inducible for P301L mutant human Tau, maximal effect, Thiamet G 200 uM as maximum) | EC50 [1] | Cellular Emax (%) (HEK293 cells inducible for P301L mutant human Tau, maximal effect, Thiamet G 200 uM as maximum) | Compound |
| --- | --- | --- | --- |
| 68% | 25.1 nM |  | Cc1cc([C@H]2CCCN(C(C)c3cnc4c(c3)OCCN4)C2)cc(C)n1 (single isomer, unassigned) [Product 135] |
|  | 2.57 nM | 95% | Cc1cc(OC[C@H]2CCCN(C(C)c3nc4c(cc3F)OCCO4)C2)cc(C)n1 (single isomer, unassigned) [Product 155] |
